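Method: 48-hour compound exposure of cells in 96-well plates, five concentrations, linear interpolation of endpoints. At the GI50, growth is halved.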 Calls of active or inactive are those of the source. Cut-off read from the data, not from the text of the source: active = GI50 up to about 1.1 µM and inactive = higher.
Key:
Assay in all cases: inhibition of tumour cell growth, NCI panel, 48 h
[1] = system: 786-0
[2] = system: A549
[3] = system: COLO 205
[4] = system: HCC 2998
[5] = system: HL-60
[6] = system: HT-29
[7] = system: KM12
[8] = system: MOLT-4
[9] = system: NCI-H226
[10] = system: NCI-H23
[11] = system: OVCAR-4
[12] = system: RPMI-8226
[13] = system: SK-MEL-28
[14] = system: SK-OV-3
[15] = system: SN12C
[16] = system: SNB-19
[17] = system: SR
[18] = system: SW-620
[19] = system: TK-10

Structure (SMILES) | GI50 [1] | GI50 [2] | GI50 [3] | GI50 [4] | GI50 [5] | GI50 [6] | GI50 [7] | GI50 [8] | GI50 [9] | GI50 [10] | GI50 [11] | GI50 [12] | GI50 [13] | GI50 [14] | GI50 [15] | GI50 [16] | GI50 [17] | GI50 [18] | GI50 [19]
O=C(/C=C/c1cc(O)c(O)cc1O)OCCc1ccccc1 | 5.05 µM (inactive) | > 67.8 µM (inactive) | 11.2 µM (inactive) | > 72.1 µM (inactive) | 1.3 µM (inactive) | 18.4 µM (inactive) | 62.4 µM (inactive) | 2.87 µM (inactive) | 35.6 µM (inactive) | 24.2 µM (inactive) | 17.7 µM (inactive) | 3.56 µM (inactive) | 21 µM (inactive) | 26.8 µM (inactive) | 15.6 µM (inactive) | 61.7 µM (inactive) | 5.53 µM (inactive) | 5.19 µM (inactive) | 6.11 µM (inactive)
Nc1ncnc2c1ncn2C1OC(CO)C(O)C(O)C1O (stereo unspecified) | > 100 µM (inactive) | > 100 µM (inactive) | > 100 µM (inactive) | > 100 µM (inactive) | > 100 µM (inactive) | > 100 µM (inactive) | > 100 µM (inactive) | > 100 µM (inactive) | > 100 µM (inactive) | > 100 µM (inactive) | > 100 µM (inactive) | > 100 µM (inactive) | > 100 µM (inactive) | – | > 100 µM (inactive) | > 100 µM (inactive) | > 100 µM (inactive) | > 100 µM (inactive) | > 100 µM (inactive)
CC(NC(=O)c1ccc(OP(=O)(OCc2ccc([N+](=O)[O-])o2)N(C)CCCCCl)cc1)c1ccc(OCC2CCCCC2)c(C(N)=O)c1 (stereo unspecified) | 4.32 µM (inactive) | 2.7 µM (inactive) | 2.61 µM (inactive) | 3.14 µM (inactive) | 3.33 µM (inactive) | 2.63 µM (inactive) | 3.36 µM (inactive) | 1.38 µM (inactive) | 3.98 µM (inactive) | 5.19 µM (inactive) | 2.35 µM (inactive) | 1.03 µM (active) | 2.3 µM (inactive) | > 33.1 µM (inactive) | 2.25 µM (inactive) | 16.4 µM (inactive) | 1.73 µM (inactive) | 4.58 µM (inactive) | 6.43 µM (inactive)
Cc1nnc2n1N=C(c1ccccc1)/C(=C/c1ccc(-c3ccc(Cl)cc3)o1)S2 | 13.1 µM (inactive) | 18 µM (inactive) | 25.2 µM (inactive) | 7.19 µM (inactive) | 4.36 µM (inactive) | 16.5 µM (inactive) | 13.4 µM (inactive) | 3.55 µM (inactive) | 14.3 µM (inactive) | 15.9 µM (inactive) | 15.7 µM (inactive) | 5.11 µM (inactive) | – | 32.1 µM (inactive) | 15.6 µM (inactive) | 16.6 µM (inactive) | 5.77 µM (inactive) | 5 µM (inactive) | 13.4 µM (inactive)
COc1cc(C2c3cc4c(cc3OC(N3CCOCC3)C2C)OCO4)cc(OC)c1OC (stereo unspecified) | 3.18 µM (inactive) | 1.56 µM (inactive) | – | 1.23 µM (inactive) | 0.412 µM (active) | 0.237 µM (active) | 0.367 µM (active) | 1.09 µM (active) | 2.6 µM (inactive) | 1.38 µM (inactive) | > 23.7 µM (inactive) | 0.778 µM (active) | 17.2 µM (inactive) | 3.27 µM (inactive) | 4.18 µM (inactive) | 0.838 µM (active) | 0.466 µM (active) | 0.59 µM (active) | 4.42 µM (inactive)
O=C(O)C1C2CCC(C2)C1c1ccccc1 (stereo unspecified) | > 100 µM (inactive) | > 100 µM (inactive) | > 100 µM (inactive) | > 100 µM (inactive) | > 100 µM (inactive) | > 100 µM (inactive) | > 100 µM (inactive) | > 100 µM (inactive) | > 100 µM (inactive) | > 100 µM (inactive) | – | > 100 µM (inactive) | > 100 µM (inactive) | > 100 µM (inactive) | > 100 µM (inactive) | > 100 µM (inactive) | > 100 µM (inactive) | > 100 µM (inactive) | > 100 µM (inactive)
CC(=O)c1cccc(Nc2c3ccccc3nc3occc23)c1 | 4.08 µM (inactive) | 16.5 µM (inactive) | 11.7 µM (inactive) | 5.21 µM (inactive) | 3.48 µM (inactive) | 1.51 µM (inactive) | 4.73 µM (inactive) | 5.27 µM (inactive) | 10.8 µM (inactive) | 3.01 µM (inactive) | 0.438 µM (active) | 3.34 µM (inactive) | 2.67 µM (inactive) | 10.6 µM (inactive) | 8.38 µM (inactive) | 10.9 µM (inactive) | 0.705 µM (active) | – | 16.2 µM (inactive)
C(=N\Nc1nnc(-c2nnc(N/N=C/c3ccccc3)o2)o1)/c1ccccc1 | > 10 µM (inactive) | > 10 µM (inactive) | > 10 µM (inactive) | > 10 µM (inactive) | > 10 µM (inactive) | > 10 µM (inactive) | > 10 µM (inactive) | > 10 µM (inactive) | > 10 µM (inactive) | > 10 µM (inactive) | > 10 µM (inactive) | > 10 µM (inactive) | > 10 µM (inactive) | – | > 10 µM (inactive) | > 10 µM (inactive) | > 10 µM (inactive) | > 10 µM (inactive) | > 10 µM (inactive)
O=c1ccc2c(Cl)cccc2o1 | > 10 µM (inactive) | > 100 µM (inactive) | > 100 µM (inactive) | 3.74 µM (inactive) | > 100 µM (inactive) | > 10 µM (inactive) | > 100 µM (inactive) | > 100 µM (inactive) | > 100 µM (inactive) | > 100 µM (inactive) | > 100 µM (inactive) | > 100 µM (inactive) | > 100 µM (inactive) | – | > 100 µM (inactive) | > 100 µM (inactive) | > 100 µM (inactive) | > 100 µM (inactive) | > 100 µM (inactive)
COC1(O)C(=O)c2ccccc2OC1(OC)c1ccccc1 (stereo unspecified) | > 100 µM (inactive) | > 100 µM (inactive) | > 100 µM (inactive) | > 100 µM (inactive) | 50.4 µM (inactive) | > 100 µM (inactive) | – | 75.2 µM (inactive) | > 100 µM (inactive) | > 100 µM (inactive) | > 100 µM (inactive) | > 100 µM (inactive) | > 100 µM (inactive) | – | > 100 µM (inactive) | > 100 µM (inactive) | 50.4 µM (inactive) | > 100 µM (inactive) | > 100 µM (inactive)
Oc1ccc([I+]c2ccccc2)cc1O | 65 µM (inactive) | 24.9 µM (inactive) | 34.4 µM (inactive) | 23.9 µM (inactive) | 16 µM (inactive) | 37.4 µM (inactive) | 24.8 µM (inactive) | 21.9 µM (inactive) | > 100 µM (inactive) | 26.3 µM (inactive) | 25.8 µM (inactive) | 12 µM (inactive) | 61.9 µM (inactive) | – | 40.5 µM (inactive) | 26.2 µM (inactive) | 19.1 µM (inactive) | 18.1 µM (inactive) | > 100 µM (inactive)
COc1ccc(CCN2CCOCC2)cc1 | > 100 µM (inactive) | > 100 µM (inactive) | > 100 µM (inactive) | > 100 µM (inactive) | > 100 µM (inactive) | > 100 µM (inactive) | > 100 µM (inactive) | > 100 µM (inactive) | > 100 µM (inactive) | > 100 µM (inactive) | – | > 100 µM (inactive) | > 100 µM (inactive) | > 100 µM (inactive) | > 100 µM (inactive) | > 100 µM (inactive) | > 100 µM (inactive) | > 100 µM (inactive) | > 100 µM (inactive)
COc1cc(COC(=O)N[C@H](C(=O)O)C(C)(C)C)c([N+](=O)[O-])cc1OC | > 100 µM (inactive) | > 100 µM (inactive) | > 100 µM (inactive) | > 100 µM (inactive) | > 10 µM (inactive) | > 100 µM (inactive) | > 100 µM (inactive) | > 100 µM (inactive) | > 100 µM (inactive) | > 100 µM (inactive) | – | > 100 µM (inactive) | > 100 µM (inactive) | > 100 µM (inactive) | > 100 µM (inactive) | > 100 µM (inactive) | > 100 µM (inactive) | > 100 µM (inactive) | > 100 µM (inactive)
COc1ccc(OC)c(NC(=O)c2c(Cl)c(Cl)c(Cl)c(Cl)c2-c2nc3ccccc3[nH]2)c1 | > 100 µM (inactive) | > 100 µM (inactive) | > 100 µM (inactive) | > 100 µM (inactive) | 53.7 µM (inactive) | > 100 µM (inactive) | > 100 µM (inactive) | 56.2 µM (inactive) | > 100 µM (inactive) | > 100 µM (inactive) | > 100 µM (inactive) | 45.4 µM (inactive) | > 100 µM (inactive) | > 100 µM (inactive) | 80.4 µM (inactive) | > 100 µM (inactive) | 52.6 µM (inactive) | > 100 µM (inactive) | –
CN(/N=C/c1ccccn1)C1=NCCCN1 | > 100 µM (inactive) | > 100 µM (inactive) | > 100 µM (inactive) | > 100 µM (inactive) | > 100 µM (inactive) | > 100 µM (inactive) | > 100 µM (inactive) | > 100 µM (inactive) | > 100 µM (inactive) | > 100 µM (inactive) | > 100 µM (inactive) | > 100 µM (inactive) | > 100 µM (inactive) | > 100 µM (inactive) | – | > 100 µM (inactive) | > 100 µM (inactive) | > 100 µM (inactive) | > 100 µM (inactive)
